This note sets out measurements from ChEMBL document CHEMBL1817597, “Antifungal thiopeptide cyclothiazomycin B1 exhibits growth inhibition accompanying morphological changes via binding to fungal cell wall chitin” (Bioorg Med Chem, 2011).

Each structure is given as a SMILES string. Active and inactive are the calls of the source. The rule behind the calls is not given here.

Experiment [1] deals with Mucor mucedo. The experiment in a line: Antimicrobial activity against Mucor mucedo IFO 7684 at 100 uM after 24 hrs by broth microdilution method. It is filed as functional, organism-based.
The test system of experiment [2] is Mucor mucedo. Briefly: Induction of morphological changes in Mucor mucedo IFO 7684 assessed as thickening of hyphae at 100 uM after 24 hrs by microscopic analysis. The experiment is classed as functional, organism-based.
Experiment [3] concerns Mucor mucedo. Briefly: Antifungal activity against Mucor mucedo IFO 7684 under hyperosmotic shock at 0.081 uM after 2 days by paper disc method. The experiment is classed as functional. As to conditions: IFO 7684, 48 h, read-out: DIZ.
In experiment [4] the test system is Fusarium oxysporum. Briefly: Antifungal activity against Fusarium oxysporum NBRC 5942 under hyperosmotic shock at 0.081 uM after 2 days by paper disc method. The experiment is classed as functional. As to conditions: NBRC 5942, 48 h, read-out: DIZ.
Experiment [5] relates to Mucor mucedo. The experiment in a line: Antifungal activity against Mucor mucedo IFO 7684 under hypoosmotic shock assessed as increase of fragility of organism at 0.081 uM after 24 hrs measured after distilled water treatment for 10 mins by microscopic analysis. It is filed as functional, organism-based.
The test system of experiment [6] is Fusarium oxysporum. The experiment in a line: Antifungal activity against Fusarium oxysporum NBRC 5942 under hypoosmotic shock assessed as increase of fragility of organism at 0.081 uM after 24 hrs measured after distilled water treatment for 10 mins by microscopic analysis. The experiment is classed as functional, organism-based.
Experiment [7] concerns Mucor mucedo. The experiment in a line: Inhibition of chitin synthase in Mucor mucedo IFO 7684 assessed as incorporation of GlcNAc from [14C]-UDP-GlcNAc into acid-insoluble fractions at 4 ug/ml after 55 mins by liquid scintillation counting.
Experiment [8] has as its system Mucor mucedo. The experiment in a line: Effect on cell wall re-generation in Mucor mucedo IFO 7684 spheroplasts under hyperosmotic condition at 0.081 uM up to 24 hrs by microscopic analysis. The experiment is classed as functional.
Experiment [9] has as its system Mucor mucedo. Briefly: Inhibition of RNA synthesis in Mucor mucedo IFO 7684 assessed as [8-14C]-adenine uptake into acid-insoluble fractions at 0.77 mM after 25 mins by liquid scintillation counting. The experiment is classed as functional. As to conditions: IFO 7684, 25 min.
In experiment [10] the test system is Mucor mucedo. The experiment in a line: Inhibition of DNA synthesis in Mucor mucedo IFO 7684 assessed as [8-14C]-adenine uptake into acid-insoluble fractions at 0.77 mM after 25 mins by liquid scintillation counting. The experiment is classed as functional. As to conditions: IFO 7684, 25 min.

In the case of `CCCC(=O)Nc1ncnc2c1ncn2[C@@H]1O[C@@H]2COP(=O)(O)O[C@H]2[C@H]1OC(=O)CCC`, the outcome in the experiment on Mucor mucedo [1] and in the experiment with Mucor mucedo [2] was inactive.
On to `C[C@@H]([C@H](N)C(=O)N[C@H](C(=O)O)[C@H]1O[C@@H](n2ccc(=O)[nH]c2=O)[C@H](O)[C@@H]1O)[C@H](O)c1ccc(O)cn1` [NIKKOMYCIN], for which the zone of inhibition at 0.081 µM with Mucor mucedo [3] is 23 mm; in the experiment on Fusarium oxysporum [4] it was 0 mm. Besides, the outcome in the experiment on Mucor mucedo [5] and with Fusarium oxysporum [6] was Active. Moreover, in the experiment with Mucor mucedo [7], the inhibition came to 69%. Besides, the result with Mucor mucedo [8] was inactive.
For `CNCCNS(=O)(=O)c1cccc2cnccc12`, the result in the experiment with Mucor mucedo [1] and in the experiment on Mucor mucedo [2] was inactive.
Consider `O=c1[nH]cc(F)c(=O)[nH]1` [FLUOROURACIL], for which the inhibition at 770 µM was found to be 75% with Mucor mucedo [9] and 61% in the experiment on Mucor mucedo [10].
